Data published in patent US9896445B2, “Heterocyclic inhibitors of ERK1 and ERK2 and their use in the treatment of cancer” (Asana Biosciences, LLC, priority 2015, dated 2018).

Tests used:
ERK1 = biological target: T1, ERK1 (Homo sapiens, UniProt P27361); assay: ERK1 HTRF (biochemical) assay
T1 construct: purchased Jubilant Biosys
Procedure: ERK1 and ERK2 HTRF (Biochemical) Assays
These assays employed a homogeneous time resolved fluorescence (HTRF) technique. […] The plate was incubated at room temperature for 60 min with shaking. […] The IC50 values (half maximal inhibitory concentration values) were subsequently determined using a sigmoidal dose-response curve (variable slope) in GraphPad Prism® 5 software.

ERK2 = biological target: T2, ERK2 (Homo sapiens, UniProt P28482); assay: ERK2 HTRF (biochemical) assay
T2 construct: purchased Jubilant Biosys
Outline: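 Readout was time-resolved FRET between europium anti-phospho-MBP and streptavidin-APC after a 60-min room-temperature kinase step. That step used ERK2 (25 nM in enzyme mix), biotinylated MBP peptide (1 uM) and ATP (24 uM) from the substrate mix, in pH 7.5 Tris buffer.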

T2 sequence (P28482 whole entry): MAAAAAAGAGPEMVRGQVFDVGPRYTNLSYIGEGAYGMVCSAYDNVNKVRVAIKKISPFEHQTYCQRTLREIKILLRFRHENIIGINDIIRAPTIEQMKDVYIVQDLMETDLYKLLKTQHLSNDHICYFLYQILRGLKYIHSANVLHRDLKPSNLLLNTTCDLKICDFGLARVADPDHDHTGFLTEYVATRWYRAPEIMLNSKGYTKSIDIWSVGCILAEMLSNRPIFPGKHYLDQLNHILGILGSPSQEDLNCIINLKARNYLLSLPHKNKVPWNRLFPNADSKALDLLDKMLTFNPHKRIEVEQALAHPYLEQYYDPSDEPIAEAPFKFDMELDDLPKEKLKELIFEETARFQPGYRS
T1 sequence (P27361 whole entry): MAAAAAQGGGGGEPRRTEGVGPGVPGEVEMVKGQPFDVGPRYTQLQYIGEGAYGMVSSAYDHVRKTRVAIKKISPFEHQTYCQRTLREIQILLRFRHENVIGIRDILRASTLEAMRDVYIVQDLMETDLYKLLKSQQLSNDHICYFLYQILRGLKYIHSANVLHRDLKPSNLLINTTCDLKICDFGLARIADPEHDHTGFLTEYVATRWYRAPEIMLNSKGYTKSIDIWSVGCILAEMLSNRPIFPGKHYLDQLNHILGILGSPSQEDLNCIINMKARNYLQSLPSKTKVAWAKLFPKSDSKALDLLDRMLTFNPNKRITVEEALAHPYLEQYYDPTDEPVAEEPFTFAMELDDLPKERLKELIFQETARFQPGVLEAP

Cc1cnc(NC2CC(F)(F)C2)nc1-n1cnc(C(=O)NC(CN)c2cc(F)cc(Cl)c2)c1 (stereo not drawn) [Example 278, N-(2-amino-1-(3-chloro-5-fluoro-phenyl)ethyl)-1-(2-((3,3-difluoro-cyclobutyl)amino)-5-methylpyrimidin-4-yl)-1H-imidazole-4-carboxamide]
IC50 (ERK1; HTRF): < 50 nM | IC50 (ERK2; HTRF): ≤ 50 nM

Cc1cnc(Nc2ccnn2C)nc1-n1cnc(C(=O)N[C@H](CN)c2cccc(Cl)c2)c1 [Example 280, (S)-N-(2-amino-1-(3-chlorophenyl)-ethyl)-1-(5-methyl-2-((1-methyl-1H-pyrazol-5-yl)amino)-pyrimidin-4-yl)-1H-imidazole-4-carboxamide]
IC50 (ERK1; HTRF): < 50 nM | IC50 (ERK2; HTRF): ≤ 50 nM

Cc1cnc(NC2CCOCC2)nc1-n1cnc(C(=O)NCc2nccs2)c1 [Example 281, 1-(5-methyl-2-((tetrahydro-2H-pyran-4-yl)amino)-pyrimidin-4-yl)-N-(thiazol-2-ylmethyl)-1H-imidazole-4-carboxamide]
IC50 (ERK1; HTRF): < 50 nM | IC50 (ERK2; HTRF): ≤ 50 nM

Cc1cnc(NC2CCOCC2)nc1-n1cnc(C(=O)NCc2ccccc2CN)c1 [Example 283, N-(2-(amino-methyl)benzyl)-1-(5-methyl-2-((tetrahydro-2H-pyran-4-yl)amino)-pyrimidin-4-yl)-1H-imidazole-4-carbox amide]
IC50 (ERK1; HTRF): < 50 nM | IC50 (ERK2; HTRF): ≤ 50 nM

Cc1cnc(NC2CCOCC2)nc1-n1cnc(C(=O)NCc2sccc2CO)c1 [Example 284, N-((3-(hydroxy-methyl)thiophen-2-yl)methyl)-1-(5-methyl-2-((tetrahydro-2H-pyran-4-yl)amino)-pyrimidin-4-yl)-1H-imidazole-4-carboxamide]
IC50 (ERK1; HTRF): < 50 nM | IC50 (ERK2; HTRF): ≤ 50 nM

Cc1cnc(NC2CCOCC2)nc1-n1cnc(C(=O)NCc2cccc(Cl)c2CN)c1 [Example 285, N-(2-(aminomethyl)-3-chlorobenzyl)-1-(5-methyl-2-((tetrahydro-2H-pyran-4-yl)amino)-pyrimidin-4-yl)-1H-imidazole-4-carboxamide]
IC50 (ERK1; HTRF): < 50 nM | IC50 (ERK2; HTRF): ≤ 50 nM

Cc1cnc(NC2CCC(F)(F)CC2)nc1-n1cnc(C(=O)N[C@H](CN)c2cccc(Cl)c2)c1 [Example 286, (S)-N-(2-amino-1-(3-chlorophenyl)-ethyl)-1-(2-((4,4-difluorocyclo-hexyl)amino)-5-methylpyrmidin-4-yl)-1H-imidazole-4-carboxamide]
IC50 (ERK1; HTRF): < 50 nM | IC50 (ERK2; HTRF): ≤ 50 nM

Cc1cnc(NC2CCOCC2)nc1-n1cnc(C(=O)NCc2ccccc2CO)c1 [Example 287, N-(2-(hydroxy-methyl)benzyl)-1-(5-methyl-2-((tetrahydro-2H-pyran-4-yl)amino)-pyrimidin-4-yl)-1H-imidazole-4-carboxamide]
IC50 (ERK1; HTRF): < 50 nM | IC50 (ERK2; HTRF): ≤ 50 nM

Cc1cnc(NC2CC(F)(F)C2)nc1-n1cnc(C(=O)N[C@H](CN)c2cc(F)cc(Cl)c2)c1 [Example 288, (S)-N-(2-amino-1-(3-chloro-5-fluoro-phenyl)ethyl)-1-(2-((3,3-difluoro-cyclobutyl)amino)-5-methylpyrimidin-4-yl)-1H-imidazole-4-carboxamide]
IC50 (ERK1; HTRF): < 50 nM | IC50 (ERK2; HTRF): ≤ 50 nM

Cc1cnc(NC2CC(F)(F)C2)nc1-n1cnc(C(=O)N[C@@H](CN)c2cc(F)cc(Cl)c2)c1 [Example 289, (R)-N-(2-amino-1-(3-chloro-5-fluoro-phenyl)ethyl)-1-(2-((3,3-difluoro-cyclobutyl)amino)-5-methylpyrimidin-4-yl)-1H-imidazole-4-carboxamide]
IC50 (ERK1; HTRF): 100 to 500 nM | IC50 (ERK2; HTRF): 50 to 100 nM

Cc1cnc(NC2CC=CCC2)nc1-n1cnc(C(=O)N[C@H](CN)c2cccc(Cl)c2)c1 (stereo partly drawn) [Example 292, N-((S)-2-amino-1-(3-chlorophenyl)-ethyl)-1-(2-(cyclohex-3-en-1-ylamino)-5-methyl-pyrimidin-4-yl)-1H-imidazole-4-carboxamide]
IC50 (ERK1; HTRF): < 50 nM | IC50 (ERK2; HTRF): ≤ 50 nM

Cc1cnc(NC2CCOCC2)nc1-n1cnc(C(=O)NCc2ccccc2C(C)(C)O)c1 [Example 293, N-(2-(2-hydroxy-propan-2-yl)benzyl)-1-(5-methyl-2-((tetrahydro-2H-pyran-4-yl)amino)-pyrimidin-4-yl)-1H-imidazole-4-carboxamide]
IC50 (ERK1; HTRF): < 50 nM | IC50 (ERK2; HTRF): ≤ 50 nM

Cc1cnc(NC2CCOCC2)nc1-n1cnc(C(=O)NCc2sccc2CN)c1 [Example 294, N-((3-(amino-methyl)thiophen-2-yl)methyl)-1-(5-methyl-2-((tetrahydro-2H-pyran-4-yl)amino)-pyrimidin-4-yl)-1H-imidazole-4-carboxamide]
IC50 (ERK1; HTRF): < 50 nM | IC50 (ERK2; HTRF): ≤ 50 nM

Cc1cnc(NC2CCOCC2)nc1-n1cnc(C(=O)N[C@H](CO)c2cc(F)cc(Cl)c2)c1 [Example 295, (S)-N-(1-(3-chloro-5-fluorophenyl)-2-hydroxyethyl)-1-(5-methyl-2-((tetrahydro-2H-pyran-4-yl)amino)-pyrimidin-4-yl)-1H-imidazole-4-carboxamide]
IC50 (ERK1; HTRF): < 50 nM | IC50 (ERK2; HTRF): ≤ 50 nM

Cc1cnc(NC2CCN(C)CC2)nc1-n1cnc(C(=O)N[C@H](CO)c2cccc(Cl)c2)c1 [Example 296, (S)-N-(1-(3-chlorophenyl)-2-hydroxyethyl)-1-(5-methyl-2-((1-methylpiperidin-4-yl)amino)-pyrimidin-4-yl)-1H-imidazole-4-carboxamide]
IC50 (ERK1; HTRF): < 50 nM | IC50 (ERK2; HTRF): ≤ 50 nM

Cc1cnc(NC2CCOCC2)nc1-n1cnc(C(=O)N[C@H](CNCc2ccc[nH]2)c2cccc(Cl)c2)c1 [Example 306, (S)-N-(2-(((1H-pyrrol-2-yl)-methyl)amino)-1-(3-chlorophenyl)-ethyl)-1-(5-methyl-2-((tetrahydro-2H-pyran-4-yl)amino)-pyrimidin-4-yl)-1H-imidazole-4-carboxamide]
IC50 (ERK1; HTRF): < 50 nM | IC50 (ERK2; HTRF): ≤ 50 nM

Cc1cnc(NC2CCOCC2)nc1-n1cnc(C(=O)NCc2cccc(Cl)n2)c1 [Example 307, N-((6-chloro-pyridin-2-yl)methyl)-1-(5-methyl-2-((tetrahydro-2H-pyran-4-yl)amino)-pyrimidin-4-yl)-1H-imidazole-4-carboxamide]
IC50 (ERK1; HTRF): < 50 nM | IC50 (ERK2; HTRF): ≤ 50 nM

Cc1cnc(NC2CCOCC2)nc1-n1cnc(C(=O)N[C@H](CNC2CCOCC2)c2cccc(Cl)c2)c1 [Example 308, (S)-N-(1-(3-chlorophenyl)-2-((tetrahydro-2H-pyran-4-yl)amino)-ethyl)-1-(5-methyl-2-((tetrahydro-2H-pyran-4-yl)amino)-pyrimidin-4-yl)-1H-imidazole-4-carbox amide]
IC50 (ERK1; HTRF biochemical assay): < 50 nM | IC50 (ERK2; HTRF biochemical assay): ≤ 50 nM

Cc1cnc(NC2CCOCC2)nc1-n1cnc(C(=O)NCc2cccc(Cl)c2F)c1 [Example 309, N-(3-chloro-2-fluorobenzyl)-1-(5-methyl-2-((tetrahydro-2H-pyran-4-yl)amino)-pyrimidin-4-yl)-1H-imidazole-4-carboxamide]
IC50 (ERK1; HTRF biochemical assay): < 50 nM | IC50 (ERK2; HTRF biochemical assay): ≤ 50 nM

Cc1cnc(N[C@H]2CCOC2)nc1-n1cnc(C(=O)NCc2cccc(C#N)c2)c1 [Example 310, (S)-N-(3-cyano-benzyl)-1-(5-methyl-2-((tetrahydrofuran-3-yl)amino)-pyrimidin-4-yl)-1H-imidazole-4-carboxamide]
IC50 (ERK1; HTRF biochemical assay): 100 to 500 nM | IC50 (ERK2; HTRF biochemical assay): ≤ 50 nM

Cc1cnc(N[C@H]2CCOC2)nc1-n1cnc(C(=O)NCc2cccc(C(F)(F)F)c2)c1 [Example 311, (S)-1-(5-methyl-2-((tetrahydrofuran-3-yl)amino)-pyrimidin-4-yl)-N-(3-(trifluoro-methyl)benzyl)-1H-imidazole-4-carboxamide]
IC50 (ERK1; HTRF biochemical assay): 50 to 100 nM | IC50 (ERK2; HTRF biochemical assay): ≤ 50 nM

Cc1cnc(NC2CCOCC2)nc1-n1cnc(C(=O)NC(C(N)=O)c2cccc(Cl)c2)c1 (stereo not drawn) [Example 312, N-(2-amino-1-(3-chlorophenyl)-2-oxoethyl)-1-(5-methyl-2-((tetrahydro-2H-pyran-4-yl)amino)-pyrimidin-4-yl)-1H-imidazole-4-carboxamide]
IC50 (ERK1; HTRF biochemical assay): < 50 nM | IC50 (ERK2; HTRF biochemical assay): ≤ 50 nM

Cc1cnc(N[C@H]2CCOC2)nc1-n1cnc(C(=O)NCc2cc(Cl)cc(Cl)c2)c1 [Example 313, (S)-N-(3,5-dichloro-benzyl)-1-(5-methyl-2-((tetrahydrofuran-3-yl)amino)-pyrimidin-4-yl)-1H-imidazole-4-carboxamide]
IC50 (ERK1; HTRF biochemical assay): < 50 nM | IC50 (ERK2; HTRF biochemical assay): ≤ 50 nM

Cc1cnc(N[C@H]2CCOC2)nc1-n1cnc(C(=O)NCc2ccc(Cl)c(Cl)c2)c1 [Example 314, (S)-N-(3,4-dichlorobenzyl)-1-(5-methyl-2-((tetrahydrofuran-3-yl)amino)pyrimidin-4-yl)-1H-imidazole-4-carboxamide]
IC50 (ERK1; HTRF biochemical assay): < 50 nM | IC50 (ERK2; HTRF biochemical assay): ≤ 50 nM

Cc1cnc(N[C@H]2CCOC2)nc1-n1cnc(C(=O)NCc2cccc(Cl)c2)c1 [Example 318, (S)-N-(3-chloro-benzyl)-1-(5-methyl-2-((tetrahydrofuran-3-yl)amino)-pyrimidin-4-yl)-1H-imidazole-4-carboxamide]
IC50 (ERK1; HTRF biochemical assay): < 50 nM | IC50 (ERK2; HTRF biochemical assay): ≤ 50 nM

Cc1cnc(NC2CCOCC2)nc1-n1cnc(C(=O)N[C@H](CN(C)C)c2cccc(Cl)c2)c1 [Example 320, (S)-N-(1-(3-chlorophenyl)-2-(dimethylamino)-ethyl)-1-(5-methyl-2-((tetrahydro-2H-pyran-4-yl)amino)-pyrimidin-4-yl)-1H-imidazole-4-carboxamide]
IC50 (ERK1; HTRF biochemical assay): < 50 nM | IC50 (ERK2; HTRF biochemical assay): ≤ 50 nM

CNC[C@@H](NC(=O)c1cn(-c2nc(NC3CCOCC3)ncc2C)cn1)c1cccc(Cl)c1 [Example 326, (S)-N-(1-(3-chlorophenyl)-2-(methylamino)ethyl)-1-(5-methyl-2-((tetrahydro-2H-pyran-4-yl)amino)-pyrimidin-4-yl)-1H-imidazole-4-carboxamide]
IC50 (ERK1; HTRF biochemical assay): < 50 nM | IC50 (ERK2; HTRF biochemical assay): ≤ 50 nM
